The EC50 is the concentration giving half of the maximal effect.

The values below come from patent US9156796B2, “Benzoimidazole-carboxylic acid amide derivatives as APJ receptor modulators” (SANOFI, priority 2013, dated 2015).

The target of this test is T1, human apelin receptor (Homo sapiens, UniProt P35414).
T1 construct: expressed in transfected cells
T1 sequence (P35414 1-380): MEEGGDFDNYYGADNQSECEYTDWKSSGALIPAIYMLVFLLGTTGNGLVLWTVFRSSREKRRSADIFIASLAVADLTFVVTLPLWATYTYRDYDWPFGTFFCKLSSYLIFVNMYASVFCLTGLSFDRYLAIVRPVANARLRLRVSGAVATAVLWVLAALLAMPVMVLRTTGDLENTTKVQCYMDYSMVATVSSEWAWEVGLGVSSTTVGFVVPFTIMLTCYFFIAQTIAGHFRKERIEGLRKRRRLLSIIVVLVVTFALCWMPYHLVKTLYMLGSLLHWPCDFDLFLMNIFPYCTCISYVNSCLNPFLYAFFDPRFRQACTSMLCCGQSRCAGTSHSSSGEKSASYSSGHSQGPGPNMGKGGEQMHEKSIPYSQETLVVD
In words: Determination of agonism on the human apelin receptor by a calcium fluorescence assay (FLIPR). The class given is cell-based. Conditions: HEK293 cells stably transfected with human apelin receptor and Giaq protein, Fluo-4 calcium fluorescence, read-out: EC50 (APJ agonism). The method in brief:
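HEK293 cells stably co-expressing human apelin receptor and promiscuous Giaq, loaded 1 h at 37 °C with Fluo-4 (4 μM) in probenecid-containing Hepes buffer, pH 7.4. Compounds, at least 7 concentrations in triplicate, added in FLIPR Tetra; peak calcium fluorescence normalized to 1 μM apelin-13 as 100% to derive EC50.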
In the case of `CCCC(NC(=O)c1ccc2c(c1)nc(Cc1cccs1)n2C(CC)CC)C(C)(C)C(=O)O` (centres unmarked) [Example 63, 3-{[1-(1-Ethyl-propyl)-2-thiophen-2-ylmethyl-1H-benzoimidazole-5-carbonyl]-amino}-2,2-dimethyl-hexanoic acid], the EC50 was determined as 343 nM. Regarding `CCC(CC)n1c(Cc2cccs2)nc2cc(C(=O)N[C@@H](CC(C)C)C(=O)NC(C)CC(C)C)ccc21` (stereo partly drawn) [Example 232, 1-(1-Ethyl-propyl)-2-thiophen-2-ylmethyl-1H-benzoimidazole-5-carboxylic acid [(S)-1-(1,3-dimethyl-butylcarbamoyl)-3-methyl-butyl]-amide], the EC50 came out at 2920 nM.

With `CCC(CC)n1c(Cc2cccs2)nc2cc(C(=O)N[C@@H](CC(C)C)C(=O)N3C[C@H]4C[C@@H]3CN4Cc3ccccc3)ccc21` [Example 325, 1-(1-Ethyl-propyl)-2-thiophen-2-ylmethyl-1H-benzoimidazole-5-carboxylic acid [(S)-1-((1R,4R)-5-benzyl-2,5-diaza-bicyclo[2.2.1]heptane-2-carbonyl)-3-methyl-butyl]-amide], the concentration giving a half-maximal response (EC50) was 4410 nM.

As to `CC(C)C[C@@H](CO)NC(=O)c1ccc2c(c1)nc(Cc1cccs1)n2C1CCCCC1C` (stereo partly drawn) [Example 211, 1-(2-Methyl-cyclohexyl)-2-thiophen-2-ylmethyl-1H-benzoimidazole-5-carboxylic acid ((S)-1-hydroxymethyl-3-methyl-butyl)-amide], the EC50 turned out to be 705 nM.

With `CCC(CC)n1c(Cc2cccs2)nc2cc(C(=O)NC(CC3CCC(C)(C)CC3)C(=O)O)ccc21` (single isomer, unassigned) [Example 445], the EC50 was 8810 nM. As for `CCC(CC)n1c(Cc2cccs2)nc2cc(C(=O)NC(CCO)c3ccsc3)ccc21` (centres unmarked) [Example 212, 1-(1-Ethyl-propyl)-2-thiophen-2-ylmethyl-1H-benzoimidazole-5-carboxylic acid (3-hydroxy-1-thiophen-3-yl-propyl)-amide], the figure is 9290 nM. For `CCC(CC)n1c(Cc2cccs2)nc2cc(C(=O)NC(C)(CC(C)C)C(=O)O)ccc21` (centres unmarked) [Example 12, 2-{[1-(1-Ethyl-propyl)-2-thiophen-2-ylmethyl-1H-benzoimidazole-5-carbonyl]-amino}-2,4-dimethyl-pentanoic acid] the value was 818 nM; for `C[C@H]1CCCC[C@@H]1n1c(Cc2cccs2)nc2cc(C(=O)NC(CC(=O)O)CC3CCCCC3)ccc21` (stereo partly drawn) [Example 52, 4-Cyclohexyl-3-{[1-((1S,2S)-2-methyl-cyclohexyl)-2-thiophen-2-ylmethyl-1H-benzoimidazole-5-carbonyl]-amino}-butyric acid], 12300 nM. As for `CCC(CC)n1c(Cc2cccs2)nc2cc(C(=O)N[C@@H](CC(C)C)C(=O)NCCOC(C)C)ccc21` [Example 371, 1-(1-Ethyl-propyl)-2-thiophen-2-ylmethyl-1H-benzoimidazole-5-carboxylic acid [(S)-1-(2-isopropoxy-ethylcarbamoyl)-3-methyl-butyl]-amide], the figure is 3570 nM; as for `CC(C)C[C@@H](CC(=O)O)NC(=O)c1ccc2c(c1)nc(Cc1ccco1)n2C1CCCCC1C` (single isomer, unassigned) [Example 432], 32 nM; as for `CCC(CC)n1c(Cc2cccs2)nc2cc(C(=O)N[C@H](CO)CC3CCCCC3)ccc21` [Example 177, 1-(1-Ethyl-propyl)-2-thiophen-2-ylmethyl-1H-benzoimidazole-5-carboxylic acid ((S)-1-cyclohexylmethyl-2-hydroxy-ethyl)-amide], 2420 nM. Consider `CCCCC(CC(=O)O)NC(=O)c1ccc2c(c1)nc(Cc1cccs1)n2[C@@H]1CCCC[C@H]1C` (single isomer, unassigned) [Example 461], for which the EC50 came to 3430 nM.

On to `CCC(CC)n1c(Cc2cccs2)nc2cc(C(=O)N[C@@H](CC(C)C)C(=O)N3CCC(N(CC)Cc4ccccc4)CC3)ccc21` [Example 336, 1-(1-Ethyl-propyl)-2-thiophen-2-ylmethyl-1H-benzoimidazole-5-carboxylic acid {(S)-1-[4-(benzyl-ethyl-amino)-piperidine-1-carbonyl]-3-methyl-butyl}-amide], for which the EC50 was determined as 1260 nM. `CCCCC(CC(=O)O)NC(=O)c1ccc2c(c1)nc(Cc1cccs1)n2[C@@H]1CCCC[C@H]1C` (single isomer, unassigned) [Example 460]: the EC50 is 122 nM.

As to `CCC(CC)n1c(Cc2cccs2)nc2cc(C(=O)N[C@@H](CC(C)C)C(=O)N3CCN(c4ccccc4OC)CC3)ccc21` [Example 315, 1-(1-Ethyl-propyl)-2-thiophen-2-ylmethyl-1H-benzoimidazole-5-carboxylic acid {(S)-1-[4-(2-methoxy-phenyl)-piperazine-1-carbonyl]-3-methyl-butyl}-amide], the EC50 stood at 2450 nM. As for `CCC(CC)n1c(Cc2cccs2)nc2cc(C(=O)NC(CC(=O)O)CC3CCCCC3)ccc21` (single isomer, unassigned) [Example 454], the figure is 126 nM. As for `CCC(CC)n1c(Cc2cccs2)nc2cc(C(=O)N[C@@H](CC(C)C)C(=O)N3CCC[C@@H]3C(=O)O)ccc21` [Example 410, (R)-1-((S)-2-{[1-(1-Ethyl-propyl)-2-thiophen-2-ylmethyl-1H-benzoimidazole-5-carbonyl]-amino}-4-methyl-pentanoyl)-pyrrolidine-2-carboxylic acid], the figure is 578 nM; as for `CCC(CC)n1c(Cc2cccs2)nc2cc(C(=O)N[C@@H](CC(C)C)C(=O)NCC3CN(Cc4ccc(F)cc4)CCO3)ccc21` (stereo partly drawn) [Example 356, 1-(1-Ethyl-propyl)-2-thiophen-2-ylmethyl-1H-benzoimidazole-5-carboxylic acid ((S)-1-{[4-(4-fluoro-benzyl)-morpholin-2-ylmethyl]-carbamoyl}-3-methyl-butyl)-amide], 4260 nM; as for `CCC(CC)n1c(Cc2cccs2)nc2cc(C(=O)NC(C)(C(=O)O)C(C)C)ccc21` (centres unmarked) [Example 5, 2-{[1-(1-Ethyl-propyl)-2-thiophen-2-ylmethyl-1H-benzoimidazole-5-carbonyl]-amino}-2,3-dimethyl-butyric acid], 9870 nM. As for `CCC(CC)n1c(Cc2cccs2)nc2cc(C(=O)N[C@H](CCC(=O)O)CC(C)C)ccc21` [Example 163, (R)-4-{[1-(1-Ethyl-propyl)-2-thiophen-2-ylmethyl-1H-benzoimidazole-5-carbonyl]-amino}-6-methyl-heptanoic acid], the figure is 51 nM; as for `CCC(CC)n1c(Cc2ccco2)nc2cc(C(=O)NC(CC(=O)O)C(C)C)ccc21` (centres unmarked) [Example 41, 3-{[1-(1-Ethyl-propyl)-2-furan-2-ylmethyl-1H-benzoimidazole-5-carbonyl]-amino}-4-methyl-pentanoic acid], 2430 nM; as for `CCCC(CC(=O)O)NC(=O)c1ccc2c(c1)nc(Cc1cccs1)n2[C@@H]1CCCC[C@H]1C` (stereo partly drawn) [Example 55, 3-{[1-((1R,2R)-2-Methyl-cyclohexyl)-2-thiophen-2-ylmethyl-1H-benzoimidazole-5-carbonyl]-amino}-hexanoic acid], 196 nM. In the case of `CC(C)C[C@@H](CC(=O)O)NC(=O)c1ccc2c(c1)nc(Cc1ccco1)n2C1CCCCC1C` (single isomer, unassigned) [Example 433], the concentration for a half-maximal effect (EC50) worked out at 1720 nM. Consider `CCC(CC)n1c(CC2CCCC2)nc2cc(C(=O)N[C@@H](CO)CC(C)C)ccc21` [Example 176, 2-Cyclopentylmethyl-1-(1-ethyl-propyl)-1H-benzoimidazole-5-carboxylic acid ((R)-1-hydroxymethyl-3-methyl-butyl)-amide], for which the EC50 was determined as 8910 nM. As for `CCC(CC)n1c(Cc2cccs2)nc2cc(C(=O)N[C@@H](CC(C)C)C(=O)NCC3CCCCN3C)ccc21` (stereo partly drawn) [Example 257, 1-(1-Ethyl-propyl)-2-thiophen-2-ylmethyl-1H-benzoimidazole-5-carboxylic acid {(S)-3-methyl-1-[(1-methyl-piperidin-2-ylmethyl)-carbamoyl]-butyl}-amide], the figure is 425 nM. For `CCC(CC)n1c(Cc2cccs2)nc2cc(C(=O)N[C@@H](CO)CC(C)C)ccc21` [Example 191, 1-(1-Ethyl-propyl)-2-thiophen-2-ylmethyl-1H-benzoimidazole-5-carboxylic acid ((R)-1-hydroxymethyl-3-methyl-butyl)-amide] the value was 6300 nM; for `CCC(CC)n1c(Cc2cccs2)nc2cc(C(=O)N[C@@H](CC(C)C)C(=O)NC3CCN(c4ccccc4)CC3)ccc21` [Example 317, 1-(1-Ethyl-propyl)-2-thiophen-2-ylmethyl-1H-benzoimidazole-5-carboxylic acid [(S)-3-methyl-1-(1-phenyl-piperidin-4-ylcarbamoyl)-butyl]-amide], 14000 nM; for `CCC(CC)n1c(Cc2cccs2)nc2cc(C(=O)N[C@H](CC(=O)O)CC(C)C)ccc21` [Example 95, (S)-3-{[1-(1-Ethyl-propyl)-2-thiophen-2-ylmethyl-1H-benzoimidazole-5-carbonyl]-amino}-5-methyl-hexanoic acid], 95 nM.

As to `CCC(CC)n1c(Cc2cccs2)nc2cc(C(=O)N[C@@H](CC(C)C)C(=O)NC3CCN(Cc4cccnc4)CC3)ccc21` [Example 308, 1-(1-Ethyl-propyl)-2-thiophen-2-ylmethyl-1H-benzoimidazole-5-carboxylic acid [(S)-3-methyl-1-(1-pyridin-3-ylmethyl-piperidin-4-ylcarbamoyl)-butyl]-amide], the concentration for a half-maximal effect (EC50) was 672 nM.
